Assays:
human D2L receptor = human D2L receptor (Homo sapiens, UniProt P14416); test: Dopamine D2L receptor binding assay ([3H]-spiperone); conditions: 10 nM test drug, [3H]-spiperone 0.5 nM, human D2L receptor-expressing CHO cell membrane; for inhibition at 0.01 µM: read-out: BINDING INHIBITION RATE (%) D2L 10 nM
Procedure, shortened: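 CHO membranes expressing human D2L incubated 60 min at RT with 0.5 nM [³H]-spiperone in 50 mM Tris-HCl pH 7.6; filtration and scintillation counting. Nonspecific binding with 10 μM spiperone; % binding inhibition at 10 nM test drug.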

human 5-HT2A receptor = molecular target: T1, human 5-HT2A receptor (Homo sapiens, UniProt P28223); test: Serotonin 5-HT2A receptor binding assay ([3H]-ketanserin); conditions: 1 nM test drug, [3H]-ketanserin 1 nM, human 5-HT2A receptor-expressing CHO cell membrane; for inhibition at 0.001 µM: read-out: BINDING INHIBITION RATE (%) 5HT2A 1 nM
T1 construct: expressed in transfected cells; host or cells: CHO cells (membrane preparation)
T1 sequence (P28223 whole entry): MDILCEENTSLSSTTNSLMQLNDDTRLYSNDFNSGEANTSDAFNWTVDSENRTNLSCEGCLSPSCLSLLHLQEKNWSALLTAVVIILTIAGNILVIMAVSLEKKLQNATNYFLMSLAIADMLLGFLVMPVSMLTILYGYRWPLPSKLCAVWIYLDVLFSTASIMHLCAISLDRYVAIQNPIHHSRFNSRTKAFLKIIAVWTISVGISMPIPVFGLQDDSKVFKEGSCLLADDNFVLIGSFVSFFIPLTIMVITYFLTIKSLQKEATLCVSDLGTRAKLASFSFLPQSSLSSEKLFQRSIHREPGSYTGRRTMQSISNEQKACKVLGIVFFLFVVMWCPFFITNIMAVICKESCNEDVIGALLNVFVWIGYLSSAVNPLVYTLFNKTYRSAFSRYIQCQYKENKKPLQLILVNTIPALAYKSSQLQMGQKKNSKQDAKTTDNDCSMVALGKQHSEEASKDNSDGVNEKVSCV
Procedure, shortened: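 Membranes from CHO cells expressing human 5-HT2A incubated 15 min at 37 °C with 1 nM [3H]-ketanserin in 50 mM Tris-HCl pH 7.6, then filtered and counted by scintillation. Nonspecific binding defined with 10 μM MDL-100907; inhibition rate determined at 1 nM or 10 nM test drug.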

human 5-HT6 receptor = molecular target: T2, human 5-HT6 receptor (Homo sapiens, UniProt P50406); test: Serotonin 5-HT6 receptor binding assay ([3H]-clozapine); conditions: 100 nM test drug, [3H]-clozapine 2 nM, human 5-HT6 receptor-expressing CHO cell membrane; for inhibition at 0.1 µM: read-out: BINDING INHIBITION RATE (%) 5HT6 100 nM
T2 construct: expressed in transfected cells; host or cells: CHO cells (membrane preparation)
T2 sequence (P50406 whole entry): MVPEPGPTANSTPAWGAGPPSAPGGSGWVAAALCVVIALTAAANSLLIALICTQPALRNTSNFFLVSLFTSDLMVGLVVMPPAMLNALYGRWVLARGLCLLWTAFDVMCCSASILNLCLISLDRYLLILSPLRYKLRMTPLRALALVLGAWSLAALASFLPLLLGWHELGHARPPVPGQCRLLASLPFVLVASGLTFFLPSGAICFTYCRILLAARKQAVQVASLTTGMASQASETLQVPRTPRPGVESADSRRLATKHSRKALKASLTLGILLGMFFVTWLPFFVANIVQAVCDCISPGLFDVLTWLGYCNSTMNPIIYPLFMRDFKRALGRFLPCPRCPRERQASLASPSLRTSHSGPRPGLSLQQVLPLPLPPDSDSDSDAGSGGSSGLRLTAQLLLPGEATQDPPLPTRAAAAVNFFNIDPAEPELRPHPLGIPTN
Procedure, shortened: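 Membranes from CHO cells expressing human 5-HT6 were incubated with [3H]-clozapine (2 nM final) for 40 min at room temperature in 50 mM Tris-HCl pH 7.6, 4 mM CaCl2, 0.5 mM EDTA. Bound radioactivity was filtered and counted. Values are % binding inhibition at 100 nM test drug, with nonspecific binding defined by 10 μM SB-258585.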

human α1D receptor = molecular target: T3, human α1D receptor (Homo sapiens, UniProt P25100); test: Adrenaline α1D receptor binding assay ([3H]-prazosin); conditions: 100 nM test drug, [3H]-prazosin 0.6 nM, human α1D receptor-expressing CHO cell membrane; for inhibition at 0.1 µM: read-out: BINDING INHIBITION RATE (%) α1D 100 nM
T3 construct: expressed in transfected cells; host or cells: CHO cells (membrane preparation)
T3 sequence (P25100 1-572): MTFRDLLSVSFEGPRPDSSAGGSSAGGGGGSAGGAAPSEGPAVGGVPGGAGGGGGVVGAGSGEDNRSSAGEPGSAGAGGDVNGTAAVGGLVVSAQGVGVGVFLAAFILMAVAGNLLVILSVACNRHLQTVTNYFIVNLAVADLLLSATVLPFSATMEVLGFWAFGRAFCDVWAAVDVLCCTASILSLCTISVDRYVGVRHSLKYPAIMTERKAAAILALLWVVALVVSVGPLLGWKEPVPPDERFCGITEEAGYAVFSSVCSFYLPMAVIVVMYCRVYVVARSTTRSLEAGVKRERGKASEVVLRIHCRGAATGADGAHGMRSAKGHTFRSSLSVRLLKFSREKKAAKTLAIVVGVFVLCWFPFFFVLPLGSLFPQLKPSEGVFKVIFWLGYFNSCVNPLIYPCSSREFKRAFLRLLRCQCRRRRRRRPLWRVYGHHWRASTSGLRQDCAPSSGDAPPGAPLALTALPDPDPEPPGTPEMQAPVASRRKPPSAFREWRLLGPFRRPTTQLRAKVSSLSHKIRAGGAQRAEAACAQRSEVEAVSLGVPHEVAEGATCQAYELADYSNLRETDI
Procedure, shortened: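 Membranes from CHO cells expressing human α1D, incubated 30 min at room temperature with 0.6 nM [3H]-prazosin in 50 mM Tris-HCl pH 7.6, filtered and counted. Nonspecific binding defined with 1 μM prazosin. Test drug at 100 nM, reported as percent inhibition of binding.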

human D2L receptor, sequence (P14416 whole entry): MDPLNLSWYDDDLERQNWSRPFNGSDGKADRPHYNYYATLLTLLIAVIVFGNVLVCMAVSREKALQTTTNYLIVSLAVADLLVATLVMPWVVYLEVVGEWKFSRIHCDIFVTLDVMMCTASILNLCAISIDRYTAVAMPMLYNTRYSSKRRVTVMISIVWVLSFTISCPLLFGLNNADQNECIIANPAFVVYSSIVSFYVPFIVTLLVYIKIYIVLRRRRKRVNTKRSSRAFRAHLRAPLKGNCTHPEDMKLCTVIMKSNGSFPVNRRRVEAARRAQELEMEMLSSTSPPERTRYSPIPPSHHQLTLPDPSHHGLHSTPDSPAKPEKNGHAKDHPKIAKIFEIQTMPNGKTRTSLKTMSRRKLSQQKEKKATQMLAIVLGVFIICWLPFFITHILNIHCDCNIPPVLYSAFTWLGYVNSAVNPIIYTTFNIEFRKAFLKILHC

Row | Compound | inhibition at 0.01 µM (human D2L receptor) [%] | inhibition at 0.001 µM (human 5-HT2A receptor) [%] | inhibition at 0.1 µM (human 5-HT6 receptor) [%] | inhibition at 0.1 µM (human α1D receptor) [%] | BINDING INHIBITION RATE (%) D2L 10 nM (human D2L receptor) [%] | BINDING INHIBITION RATE (%) 5HT2A 1 nM (human 5-HT2A receptor) [%] | BINDING INHIBITION RATE (%) 5HT6 100 nM (human 5-HT6 receptor) [%] | BINDING INHIBITION RATE (%) α1D 100 nM (human α1D receptor) [%]
1 | Cc1cccc2cc(C(=O)N3CCC[C@H]3CCN3CCC(C(=O)c4ccc(F)cc4)CC3)[nH]c12 [Example 61] | 69 | 46 | 82 | 29 | – | – | – | –
2 | O=C(c1ccc(F)cc1)C1CCN(CC[C@@H]2CCCN2C(=O)c2cc3c(F)cccc3[nH]2)CC1 [Example 62] | 81 | 61 | 87 | 43 | – | – | – | –
3 | O=C(c1ccc(F)cc1)C1CCN(CC[C@@H]2CCCN2C(=O)c2cc3ccc(F)cc3[nH]2)CC1 [Example 159, (S)-(6-Fluoro-1H-indol-2-yl)(2-(2-(4-(4-fluorobenzoyl)piperidin-1-yl)ethyl)pyrrolidin-1-yl)-methanone] | 93 | 78 | 96 | 71 | – | – | – | –
4 | O=C(c1ccc(F)cc1)C1CCN(CC[C@@H]2CCCN2C(=O)c2cc3ccc(OC(F)(F)F)cc3[nH]2)CC1 [Example 160, (S)-(2-(2-(4-(4-Fluorobenzoyl)piperidin-1-yl)ethyl)pyrrolidin-1-yl)(6-(trifluoromethoxy)-1H-indol-2-yl)methanone] | 90 | 72 | 98 | 53 | – | – | – | –
5 | CC(C)c1ccc2cc(C(=O)N3CCC[C@H]3CCN3CCC(C(=O)c4ccc(F)cc4)CC3)[nH]c2c1 [Example 161, (S)-(2-(2-(4-(4-Fluorobenzoyl)piperidin-1-yl)ethyl)pyrrolidin-1-yl)(6-isopropyl-1H-indol-2-yl)methanone] | 49 | 69 | 97 | 66 | – | – | – | –
6 | COc1c(F)ccc2[nH]c(C(=O)N3CCC[C@H]3CCN3CCC(C(=O)c4ccc(F)cc4)CC3)cc12 [Example 162, (S)-(5-Fluoro-4-methoxy-1H-indol-2-yl)(2-(2-(4-(4-fluorobenzoyl)piperidin-1-yl)ethyl)pyrrolidin-1-yl)methanone] | 86 | 84 | 93 | 79 | – | – | – | –
7 | O=C(c1ccc(F)cc1)C1CCN(CC[C@@H]2CCCN2C(=O)c2[nH]c3cc(F)ccc3c2F)CC1 [Example 163, (S)-(3,6-Difluoro-1H-indol-2-yl)(2-(2-(4-(4-fluorobenzoyl)piperidin-1-yl)ethyl)pyrrolidin-1-yl)methanone] | 88 | 75 | 95 | 48 | – | – | – | –
8 | O=C(c1ccc(F)cc1)C1CCN(CC[C@@H]2CCCN2C(=O)c2[nH]c3cc(OC(F)(F)F)ccc3c2F)CC1 [Example 164, (S)-(3-Fluoro-6-(trifluoromethoxy)-1H-indol-2-yl)(2-(2-(4-(4-fluorobenzoyl)piperidin-1-yl)ethyl)pyrrolidin-1-yl)methanone] | 79 | 56 | 99 | 43 | – | – | – | –
9 | O=C(c1ccc(F)cc1)C1CCN(CC[C@@H]2CCCN2C(=O)c2[nH]c3ccccc3c2F)CC1 [Example 165, (S)-(3-Fluoro-1H-indol-2-yl)(2-(2-(4-(4-fluorobenzoyl)piperidin-1-yl)ethyl)pyrrolidin-1-yl)methanone] | 90 | 74 | 90 | 53 | – | – | – | –
10 | (S)-(2-(2-(4-(4-Fluorobenzoyl)piperidin-1-yl)ethyl)pyrrolidin-1-yl)(1-methyl-1H-indol-5-yl)methanone [Example 169] | – | – | – | – | 81 | 47 | 73 | 49

Reference: US8541585B2, “N-acyl cyclic amine derivative or pharmaceutically acceptable salt thereof” (Dainippon Sumitomo Pharma Co., Ltd., priority 2010, dated 2013)
